target: T1, human liver glycogen phosphorylase a (HLGPa) (Homo sapiens, UniProt P06737); assay: Human liver glycogen phosphorylase a enzymatic activity assay (coupled, fluorescent resorufin readout, with and without 10 mM glucose); format: biochemical; conditions: human liver glycogen phosphorylase a; table does not say whether with or without 10 mM glucose
T1 construct: creating a full-length cDNA fused at the 5′ end to codons for methionine-glycine-alanine-histidine; 6xHis tag (leader Met-Gly-Ala-His6-Gly-Gly) (N); made in house; host or cells: E. coli (bacterial expression plasmid pTXK1007LTev)
T1 sequence (P06737 2-847 limits assumed): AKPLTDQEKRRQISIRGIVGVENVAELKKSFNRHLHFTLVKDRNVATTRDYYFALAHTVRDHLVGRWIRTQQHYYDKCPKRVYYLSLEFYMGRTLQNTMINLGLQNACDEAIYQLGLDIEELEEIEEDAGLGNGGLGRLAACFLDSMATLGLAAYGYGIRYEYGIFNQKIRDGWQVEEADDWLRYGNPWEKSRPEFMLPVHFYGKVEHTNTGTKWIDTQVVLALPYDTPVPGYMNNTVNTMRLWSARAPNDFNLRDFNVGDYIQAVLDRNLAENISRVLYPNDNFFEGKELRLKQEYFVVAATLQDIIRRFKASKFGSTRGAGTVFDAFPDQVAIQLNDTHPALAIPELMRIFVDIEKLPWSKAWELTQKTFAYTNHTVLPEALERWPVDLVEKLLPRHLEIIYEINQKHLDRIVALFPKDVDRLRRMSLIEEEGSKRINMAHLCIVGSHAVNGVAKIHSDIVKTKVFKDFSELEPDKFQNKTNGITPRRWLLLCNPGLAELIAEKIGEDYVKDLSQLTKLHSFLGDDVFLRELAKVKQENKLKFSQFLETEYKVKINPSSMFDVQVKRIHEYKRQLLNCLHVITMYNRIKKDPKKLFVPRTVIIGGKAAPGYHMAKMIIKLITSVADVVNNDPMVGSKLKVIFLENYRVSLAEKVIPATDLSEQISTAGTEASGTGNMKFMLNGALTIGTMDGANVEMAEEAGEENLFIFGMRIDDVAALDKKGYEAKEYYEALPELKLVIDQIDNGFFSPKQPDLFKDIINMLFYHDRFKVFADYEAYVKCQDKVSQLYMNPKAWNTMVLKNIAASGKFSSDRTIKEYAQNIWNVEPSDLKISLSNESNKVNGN

`Cc1cc(C)c(NC(=O)Nc2cc(-c3ccc(CN4CCOCC4)cc3)ccc2C(=O)N[C@H](C(=O)O)C2CCCCC2)c(C)c1` [Example 217, (2S)-cyclohexyl({[4′-(4-morpholinylmethyl)-3-({[(2,4,6-trimethylphenyl)amino]carbonyl}amino)-4-biphenylyl]carbonyl}amino)ethanoic acid] and `Cc1cc(C)c(NC(=O)Nc2cc(-c3ccc(F)cc3)ccc2C(=O)N[C@H](C(=O)O)C2CCCCC2)c(C)c1` [Example 223, (2S)-Cyclohexyl({[4′-fluoro-3-({[(2,4,6-trimethylphenyl)amino]carbonyl}amino)-4-biphenylyl]carbonyl}amino)ethanoic acid] are the same in IC50: 0.009 µM for the first, 0.009 µM for the second.

First: CCOc1ccc(-c2ccc(C(=O)N[C@H](C(=O)O)C3CCCCC3)c(NC(=O)Nc3c(C)cc(C)cc3C)c2)cc1 [Example 218, (2S)-Cyclohexyl({[4′-(ethyloxy)-3-({[(2,4,6-trimethylphenyl)amino]carbonyl}amino)-4-biphenylyl]carbonyl}amino)ethanoic acid]
Second: Cc1cc(C)c(NC(=O)Nc2cc(-c3cccc(F)c3)ccc2C(=O)N[C@H](C(=O)O)C2CCCCC2)c(C)c1 [Example 234, (2S)-Cyclohexyl({[3′-fluoro-3-({[(2,4,6-trimethylphenyl)amino]carbonyl}amino)-4-biphenylyl]carbonyl}amino)ethanoic acid]
The IC50 of the first is 3.4-fold lower: 0.007 µM for the first, 0.024 µM for the second.

Going from `CCCC[C@H](NC(=O)c1ccc(-c2ccc(OC)cc2)cc1NC(=O)Nc1c(C)cc(C)cc1C)C(=O)O` [Example 219, N-{[4′-(methyloxy)-3-({[(2,4,6-trimethylphenyl)amino]carbonyl}amino)-4-biphenylyl]carbonyl}-L-norleucine] to `COc1ccc(-c2ccc(C(=O)N[C@H](C(=O)O)[C@@H](C)OC(C)(C)C)c(NC(=O)Nc3c(C)cc(C)cc3C)c2)cc1` [Example 225, O-(1,1-Dimethylethyl)-N-{[4′-(methyloxy)-3-({[(2,4,6-trimethylphenyl)amino]carbonyl}amino)-4-biphenylyl]carbonyl}-L-threonine], the IC50 falls from 0.015 µM to 0.002 µM (7.5-fold).

Going from `Cc1cc(C)c(NC(=O)Nc2cc(S(C)(=O)=O)ccc2C(=O)N[C@H](C(=O)O)C2CCCCC2)c(C)c1` [Example 220, (2S)-Cyclohexyl({[4-(methylsulfonyl)-2-({[(2,4,6-trimethylphenyl)amino]carbonyl}amino)phenyl]carbonyl}amino)ethanoic acid] to `Cc1cc(C)c(NC(=O)Nc2cc(F)c(F)cc2C(=O)N[C@H](C(=O)O)C2CCCCC2)c(C)c1` [Example 230, (2S)-Cyclohexyl({[4,5-difluoro-2-({[(2,4,6-trimethylphenyl)amino]carbonyl}amino)phenyl]carbonyl}amino)ethanoic acid], the IC50 falls from 1.96 µM to 0.058 µM (34-fold). The second is the more potent here.

Going from `Cc1cc(C)c(NC(=O)Nc2cc(F)ccc2C(=O)NC2(C(=O)O)CCCCCC2)c(C)c1` [Example 221, 1-({[4-Fluoro-2-({[(2,4,6-trimethylphenyl)amino]carbonyl}amino)phenyl]carbonyl}amino)cycloheptane-carboxylic acid] to `Cc1cc(C)c(NC(=O)Nc2cc(-c3ccc(F)c(F)c3)ccc2C(=O)NC2(C(=O)O)CCCCCCC2)c(C)c1` [Example 227, 1-({[3′,4′-Difluoro-3-({[(2,4,6-trimethylphenyl)amino]carbonyl}amino)-4-biphenylyl]carbonyl}amino)cyclooctanecarboxylic acid], the IC50 falls from 0.3 µM to 0.001 µM (300-fold). The second is the more potent here.

Compared with `COc1ccc(-c2ccc(C(=O)NC3(C(=O)O)CCCCCC3)c(NC(=O)Nc3c(C)cc(C)cc3C)c2)cc1` [Example 222, 1-({[4′-(methyloxy)-3-({[(2,4,6-trimethylphenyl)amino]carbonyl}amino)-4-biphenylyl]carbonyl}amino)cycloheptanecarboxylic acid], `COc1ccc(-c2ccc(C(=O)NC3(C(=O)O)CCCCCCC3)c(NC(=O)Nc3c(C)cc(C)cc3C)c2)cc1` [Example 231, 1-({[4′-(Methyloxy)-3-({[(2,4,6-trimethylphenyl)amino]carbonyl}amino)-4-biphenylyl]carbonyl}amino)cyclooctanecarboxylic acid] is 24-fold lower in IC50: 0.024 µM for the first, 0.001 µM for the second.

`Cc1cc(C)c(NC(=O)Nc2cc(-c3ccc4c(c3)OCO4)ccc2C(=O)N[C@H](C(=O)O)C2CCCCC2)c(C)c1` [Example 224, (2S)-({[4-(1,3-Benzodioxol-5-yl)-2-({[(2,4,6-trimethylphenyl)amino]carbonyl}amino)phenyl]carbonyl}amino)(cyclohexyl)-ethanoic acid] and `Cc1cc(C)c(NC(=O)Nc2cc(-c3ccc4c(c3)OCCO4)ccc2C(=O)N[C@H](C(=O)O)C2CCCCC2)c(C)c1` [Example 228, (2S)-Cyclohexyl({[4-(2,3-dihydro-1,4-benzodioxin-6-yl)-2-({[(2,4,6-trimethylphenyl)amino]carbonyl}amino)phenyl]carbonyl}amino)ethanoic acid] are within 1.5-fold of each other in IC50: 0.003 µM for the first, 0.004 µM for the second.

Compared with `Cc1cc(C)c(NC(=O)Nc2cc(F)ccc2C(=O)N[C@H](C(=O)O)[C@@H](C)OC(C)(C)C)c(C)c1` [Example 226, O-(1,1-Dimethylethyl)-N-{[4-fluoro-2-({[(2,4,6-trimethylphenyl)amino]carbonyl}amino)phenyl]carbonyl}-L-threonine], `Cc1cc(C)c(NC(=O)Nc2cc(-c3cccc(F)c3)ccc2C(=O)N[C@H](C(=O)O)[C@@H](C)OC(C)(C)C)c(C)c1` [Example 233, O-(1,1-Dimethylethyl)-N-{[3′-fluoro-3-({[(2,4,6-trimethylphenyl)amino]carbonyl}amino)-4-biphenylyl]carbonyl}-L-threonine] is 23-fold lower in IC50: 0.53 µM for the first, 0.023 µM for the second. The second is the more potent here.

First: COc1ccc(-c2ccc(C(=O)N[C@H](C(=O)O)C3CCCCC3)c(NC(=O)Nc3c(C)cc(C)cc3C)c2)cc1OC [Example 229, (2S)-({[3′,4′-Bis(methyloxy)-3-({[(2,4,6-trimethylphenyl)amino]carbonyl}amino)-4-biphenylyl]carbonyl}amino)(cyclohexyl)ethanoic acid]
Second: COc1ccc(-c2ccc(C(=O)N[C@H](C(=O)O)C3CCCCC3)c(NC(=O)Nc3c(C)cc(C)cc3C)c2)cc1F [Example 237, (2S)-Cyclohexyl({[3′-fluoro-4′-(methyloxy)-3-({[(2,4,6-trimethylphenyl)amino]carbonyl}amino)-4-biphenylyl]carbonyl}amino)ethanoic acid]
The IC50 of the first is 6.7-fold lower: 0.003 µM for the first, 0.02 µM for the second. The first is the more potent here.

Compared with `COc1ccc(-c2ccc(C(=O)N[C@H](C(=O)O)[C@@H](C)OC(C)(C)C)c(NC(=O)Nc3c(Cl)cc(OC(F)(F)F)cc3Cl)c2)cc1` [Example 232, N-{[3-{[({2,6-Dichloro-4-[(trifluoromethyl)oxy]phenyl}amino)carbonyl]amino}-4′-(methyloxy)-4-biphenylyl]carbonyl}-O-(1,1-dimethylethyl)-L-threonine], `CCCc1cc(C)c(NC(=O)Nc2cc(-c3ccc(OC)cc3)ccc2C(=O)N[C@H](C(=O)O)[C@@H](C)OC(C)(C)C)c(C)c1` [Example 236, O-(1,1-Dimethylethyl)-N-{[3-({[(2,6-dimethyl-4-propylphenyl)amino]carbonyl}amino)-4′-(methyloxy)-4-biphenylyl]carbonyl}-L-threonine] is 1.8-fold lower in IC50: 0.007 µM for the first, 0.004 µM for the second. The second is the more potent here.

`COc1ccc(-c2ccc(C(=O)N[C@H](C(=O)O)[C@@H](C)OC(C)(C)C)c(NC(=O)Nc3c(C)cc(C)cc3C)c2)cc1F` [Example 235, O-(1,1-Dimethylethyl)-N-{[3′-fluoro-4′-(methyloxy)-3-({[(2,4,6-trimethylphenyl)amino]carbonyl}amino)-4-biphenylyl]carbonyl}-L-threonine] and `COc1ccc(-c2ccc(C(=O)NC3(C(=O)O)CCCCCCC3)c(NC(=O)Nc3c(C)cc(C)cc3C)c2)cc1F` [Example 238, 1-({[3′-Fluoro-4′-(methyloxy)-3-({[(2,4,6-trimethylphenyl)amino]carbonyl}amino)-4-biphenylyl]carbonyl}amino)cyclooctanecarboxylic acid] are within 1.5-fold of each other in IC50: 0.013 µM for the first, 0.01 µM for the second.

Compared with `COc1ccc(NC(=O)Nc2cc3ccccc3cc2C(=O)N[C@H](C(=O)O)C2CCCCC2)c(OC)c1` [Example 239, (2S)-[({3-[({[2,4-bis(methyloxy)phenyl]amino}carbonyl)amino]-2-naphthalenyl}carbonyl)amino](cyclohexyl)ethanoic acid], `O=C(Nc1cc(C(F)(F)F)cc(C(F)(F)F)c1)Nc1cc2ccccc2cc1C(=O)N[C@H](C(=O)O)C1CCCCC1` [Example 240, (2S)-[({3-[({[3,5-bis(trifluoromethyl)phenyl]amino}carbonyl)amino]-2-naphthalenyl}carbonyl)amino](cyclohexyl)ethanoic acid] is 3.4-fold higher in IC50: 2.38 µM for the first, 8.18 µM for the second. The first is the more potent here.

For `Cc1cccc(C)c1NC(=O)Nc1cc2ccccc2cc1C(=O)N(CC(=O)O)Cc1ccccn1` [Example 241, N-{[3-({[(2,6-dimethylphenyl)amino]carbonyl}amino)-2-naphthalenyl]carbonyl}-N-(2-pyridinylmethyl)glycine], the IC50 was 3.61 µM.

Reference: patent publication US20070249670A1, “Glycogen Phosphorylase Inhibitor Compounds and Pharmaceutical Compositions Thereof” (SMITHKLINE BEECHAM CORPORATION, priority 2004, published 2007)
